Blank lines part the entries; values can stand above or below the compound they belong to.
Test system: NCI-H929 complex spheroids, viability % test/control
Experiment: Anticancer human tumor NCI-H929 cell line growth inhibition [RAS];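 further: compound exposure lasted seven days before viability was read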;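 on viability, T/C: 100% = DMSO vehicle control viability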
Details: for viability, T/C: stronger effect = lower value
Method in brief: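 Multi-cell-type spheroids: tumor cells plus HUVEC endothelial cells and mesenchymal stem cells. RAS-pathway inhibitors were combined with targeted agents, each dosed in half-log steps down from clinical Cmax, or from 10 microM when Cmax was unknown.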

IC50 (curve of first compound, second compound 0.000949 µM): 1310 nM | IC50 (curve of first compound, second compound 0.003 µM): 1430 nM | IC50 (curve of first compound, second compound 0.00949 µM): 1640 nM | IC50 (curve of first compound, second compound 0.03 µM): 1450 nM | IC50 (curve of first compound, second compound 0.0949 µM): 1200 nM | IC50 (curve of first compound, second compound 0.3 µM): 986 nM
SMILES: CC(C)NCC(C(=O)N1CCN(c2ncnc3c2C(C)CC3O)CC1)c1ccc(Cl)cc1 (centres undefined) + CCn1c(-c2cccnc2C(C)OC)c2c3cc(ccc31)N1CCOC(CC(NC(=O)C(C(C)C)N(C)C(=O)C3(F)CCN(C(=O)C#CC(C)(C)N(C)C)CC3)C(=O)N3CCCC(N3)C(=O)OCC(C)(C)C2)C1
viability, T/C (second compound 0.000949 µM, first compound 0.0316 µM): 106% | viability, T/C (second compound 0.000949 µM, first compound 0.1 µM): 96.4% | viability, T/C (second compound 0.000949 µM, first compound 0.316 µM): 98.7% | viability, T/C (second compound 0.000949 µM, first compound 1 µM): 59.4% | viability, T/C (second compound 0.000949 µM, first compound 3.16 µM): 16.5% | viability, T/C (second compound 0.000949 µM, first compound 10 µM): 2.67% | viability, T/C (second compound 0.003 µM, first compound 0.0316 µM): 99.5% | viability, T/C (second compound 0.003 µM, first compound 0.1 µM): 101% | viability, T/C (second compound 0.003 µM, first compound 0.316 µM): 95% | viability, T/C (second compound 0.003 µM, first compound 1 µM): 65.4% | viability, T/C (second compound 0.003 µM, first compound 3.16 µM): 15.5% | viability, T/C (second compound 0.003 µM, first compound 10 µM): 2.08% | viability, T/C (second compound 0.00949 µM, first compound 0.0316 µM): 98.6% | viability, T/C (second compound 0.00949 µM, first compound 0.1 µM): 97% | viability, T/C (second compound 0.00949 µM, first compound 0.316 µM): 99% | viability, T/C (second compound 0.00949 µM, first compound 1 µM): 68.7% | viability, T/C (second compound 0.00949 µM, first compound 3.16 µM): 23.8% | viability, T/C (second compound 0.00949 µM, first compound 10 µM): 2.36% | viability, T/C (second compound 0.03 µM, first compound 0.0316 µM): 101% | viability, T/C (second compound 0.03 µM, first compound 0.1 µM): 100% | viability, T/C (second compound 0.03 µM, first compound 0.316 µM): 98.5% | viability, T/C (second compound 0.03 µM, first compound 1 µM): 67.7% | viability, T/C (second compound 0.03 µM, first compound 3.16 µM): 12.6% | viability, T/C (second compound 0.03 µM, first compound 10 µM): 1.6% | viability, T/C (second compound 0.0949 µM, first compound 0.0316 µM): 101% | viability, T/C (second compound 0.0949 µM, first compound 0.1 µM): 102% | viability, T/C (second compound 0.0949 µM, first compound 0.316 µM): 97.4% | viability, T/C (second compound 0.0949 µM, first compound 1 µM): 57.4% | viability, T/C (second compound 0.0949 µM, first compound 3.16 µM): 9.37% | viability, T/C (second compound 0.0949 µM, first compound 10 µM): 1.65% | viability, T/C (second compound 0.3 µM, first compound 0.0316 µM): 103% | viability, T/C (second compound 0.3 µM, first compound 0.1 µM): 103% | viability, T/C (second compound 0.3 µM, first compound 0.316 µM): 95.1% | viability, T/C (second compound 0.3 µM, first compound 1 µM): 49.6% | viability, T/C (second compound 0.3 µM, first compound 3.16 µM): 6.6% | viability, T/C (second compound 0.3 µM, first compound 10 µM): 1.34%

IC50 (curve of compound): > 10000 nM
SMILES: Cc1nc(N2CCC3(CC2)COC(C)C3N)c(CO)nc1Sc1ccnc(N)c1Cl (centres undefined)
viability, T/C (compound 0.0316 µM): 110% [middle of 4 runs] | viability, T/C (compound 0.1 µM): 99% [middle of 4 runs] | viability, T/C (compound 0.316 µM): 107% [middle of 4 runs] | viability, T/C (compound 1 µM): 100% [middle of 4 runs] | viability, T/C (compound 3.16 µM): 105% [middle of 4 runs] | viability, T/C (compound 10 µM): 103% [middle of 4 runs]

Reference: PubChem BioAssay AID2060884 (Molecular Pharmacology Branch, DTP, NCI, 2025)
